Measured values from PubChem BioAssay (NCI).
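In this assay, cells in 96-well plates receive the compound at five concentrations for 48 hours. Endpoints are linearly interpolated between the surrounding concentrations. Definition used: TGI = concentration required for complete inhibition of growth.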

Key:
Test in all cases: inhibition of tumour cell growth, NCI panel, 48 h
[1] = test system: SNB-75 CNS
[2] = test system: UACC-257 melanoma
[3] = test system: SK-MEL-28 melanoma
[4] = test system: ACHN renal
[5] = test system: HCT-15 colon
[6] = test system: UACC-62 melanoma
[7] = test system: COLO 205 colon
[8] = test system: SR leukemia
[9] = test system: SK-OV-3 ovarian
[10] = test system: MDA-MB-435
[11] = test system: MOLT-4 leukemia
[12] = test system: NCI-H23 lung
[13] = test system: HT29 colon
[14] = test system: HOP-92 NSCLC
[15] = test system: KM12 colon
[16] = test system: MCF7 breast
[17] = test system: SK-MEL-2 melanoma
[18] = test system: LOX IMVI melanoma
[19] = test system: HCT-116 colon
[20] = test system: SF-295 CNS
[21] = test system: HOP-62 NSCLC
[22] = test system: U251 CNS
[23] = test system: T-47D breast
[24] = test system: M14 melanoma
[25] = test system: HCC-2998 colon
[26] = test system: NCI-H522 lung
[27] = test system: BT-549 breast
[28] = test system: NCI-H460 lung
[29] = test system: MDA-N
[30] = test system: IGROV1 ovarian
[31] = test system: CCRF-CEM leukemia
[32] = test system: SF-539 CNS
[33] = test system: PC-3 prostate
[34] = test system: RPMI-8226 leukemia
[35] = test system: DU-145 prostate
[36] = test system: A549 NSCLC
[37] = test system: MDA-MB-231 breast
[38] = test system: MALME-3M melanoma
[39] = test system: SF-268 CNS
[40] = test system: HL-60(TB) leukemia
[41] = test system: A498 renal
[42] = test system: CAKI-1 renal
[43] = test system: EKVX NSCLC
[44] = test system: SK-MEL-5 melanoma
[45] = test system: OVCAR-5 ovarian
[46] = test system: SN12C renal
[47] = test system: OVCAR-4 ovarian
[48] = test system: OVCAR-8 ovarian
[49] = test system: NCI/ADR-RES ovarian
[50] = test system: SW-620 colon
[51] = test system: HS 578T breast
[52] = test system: NCI-H226 lung
[53] = test system: K-562 leukemia
[54] = test system: OVCAR-3 ovarian
[55] = test system: 786-0 renal
[56] = test system: SNB-19 CNS
[57] = test system: UO-31 renal
[58] = test system: TK-10 renal

Cc1ccc2c(c1)C(=O)c1[nH]c3ccc(F)cc3c1CO2
TGI [1]: 40.4 µM
TGI [2]: > 100 µM
TGI [3]: > 100 µM
TGI [4]: > 100 µM
TGI [5]: > 100 µM
TGI [6]: 98.2 µM
TGI [7]: > 100 µM
TGI [8]: > 100 µM
TGI [9]: 43 µM
TGI [10]: > 100 µM
TGI [11]: > 100 µM
TGI [12]: > 100 µM
TGI [13]: > 100 µM
TGI [14]: > 100 µM
TGI [15]: > 100 µM
TGI [16]: > 100 µM
TGI [17]: 40.6 µM
TGI [18]: > 100 µM
TGI [19]: > 100 µM
TGI [20]: 31.6 µM
TGI [21]: 36 µM
TGI [22]: 50.2 µM
TGI [23]: > 100 µM
TGI [24]: > 100 µM
TGI [25]: > 100 µM
TGI [26]: > 100 µM
TGI [27]: > 100 µM
TGI [28]: > 100 µM
TGI [29]: > 100 µM
TGI [30]: > 100 µM
TGI [31]: > 100 µM
TGI [32]: 49.8 µM
TGI [33]: > 100 µM
TGI [34]: > 100 µM
TGI [35]: > 100 µM
TGI [36]: > 100 µM
TGI [37]: > 100 µM
TGI [38]: > 100 µM
TGI [39]: > 100 µM
TGI [40]: > 100 µM
TGI [41]: > 100 µM
TGI [42]: > 100 µM
TGI [43]: > 100 µM
TGI [44]: > 100 µM
TGI [45]: > 100 µM
TGI [46]: > 100 µM
TGI [47]: 88.8 µM
TGI [48]: 62.2 µM
TGI [49]: > 100 µM
TGI [50]: > 100 µM
TGI [51]: 58.1 µM
TGI [52]: > 100 µM
TGI [53]: > 100 µM
TGI [54]: > 100 µM
TGI [55]: > 100 µM
TGI [56]: 46.8 µM
TGI [57]: > 100 µM
TGI [58]: 92.6 µM

OC1CC2CCCN(CCc3c1[nH]c1ccccc31)C2 (centres undefined)
TGI [1]: > 100 µM
TGI [2]: > 100 µM
TGI [3]: > 100 µM
TGI [4]: > 100 µM
TGI [5]: > 100 µM
TGI [6]: > 100 µM
TGI [7]: > 100 µM
TGI [8]: > 100 µM
TGI [9]: > 100 µM
TGI [10]: > 100 µM
TGI [12]: > 100 µM
TGI [13]: > 100 µM
TGI [14]: > 100 µM
TGI [15]: > 100 µM
TGI [16]: > 100 µM
TGI [17]: > 100 µM
TGI [18]: > 100 µM
TGI [19]: > 100 µM
TGI [20]: > 100 µM
TGI [22]: > 100 µM
TGI [23]: > 100 µM
TGI [25]: > 100 µM
TGI [26]: > 100 µM
TGI [27]: > 100 µM
TGI [28]: > 100 µM
TGI [29]: > 100 µM
TGI [31]: > 100 µM
TGI [32]: > 100 µM
TGI [33]: > 100 µM
TGI [34]: > 100 µM
TGI [35]: > 100 µM
TGI [36]: > 100 µM
TGI [37]: > 100 µM
TGI [38]: > 100 µM
TGI [39]: > 100 µM
TGI [40]: > 100 µM
TGI [41]: > 100 µM
TGI [42]: > 100 µM
TGI [44]: > 100 µM
TGI [46]: > 100 µM
TGI [47]: > 100 µM
TGI [48]: > 100 µM
TGI [49]: > 100 µM
TGI [50]: > 100 µM
TGI [51]: > 100 µM
TGI [52]: > 100 µM
TGI [53]: > 100 µM
TGI [55]: > 100 µM
TGI [56]: > 100 µM
TGI [57]: > 100 µM
TGI [58]: > 100 µM
